Experimental data as given in patent publication US20210317102A1, “INHIBITORS OF INTEGRATED STRESS RESPONSE PATHWAY” (Praxis Biotech LLC, priority 2019, published 2021).

What was measured:
L-Wnt-3A cells = assay: Secretion of Wnt-3A by L-Wnt-3A cells; type: cell-based; conditions: 1 µM compound 10, DMEM with reduced FBS (1%), 24 hours, vs vehicle
Description: L-Wnt-3A cells (ATCC® CRL-2647™) were maintained at 37° C. and 5% CO2 in DMEM supplemented with 10% fetal bovine serum (FBS), 2 mM L-glutamine, 100 U/ml penicillin, and 100 μg/ml streptomycin. After reaching 80% of confluence, cells were detached and seeded on 6-well plates in complete media, allowed to recover for 48 h. Cells were then washed three times with PBS and treated with vehicle (1% DMSO) or 1 µM compound 10 in DMEM with reduced FBS (1%) for 24 hours. Then, culture media with cells were recovered in microtubes and centrifuged at 500 g for 5 minutes. Supernatants (SN) which contain secreted proteins were extracted and protease and phosphatase inhibitors (Roche) were added to each sample. SN were centrifuged at 2,000 g for 10 min to discard any cellular debris and 900 μL SN were transferred to empty microtubes with […] methanol by mixing well. 200 μL of chloroform was added to the mix and then samples were centrifuged at 14,000 g for 2 minutes. […] Quantification of protein bands was done by densitometry using ImageJ software.
Percent of secreted Wnt-3A by L-Wnt3A cells treated with vehicle or compound 10 from two independent experiments is shown in FIG. 5. Percentage was calculated as the percent relative to […] secretion levels from L-Wnt-3A cells treated with vehicle which correspond to 100%.

[1] = system: ATF4 expression, HEK293T cells carrying the ATF4 luciferase reporter; assay: ATF4 expression inhibition assay (ATF4 luciferase reporter); type: cell-based; conditions: Homo sapiens, HEK-293T, 100 nM thapsigargin, 3 hours
Summary of the method: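 Stable HEK293T line expressing firefly luciferase behind the human full-length ATF4 5′UTR; cells stressed with 100 nM thapsigargin alongside compound (1 nM–10 μM) for 3 h at 37 °C. Luminescence normalized to Tg alone (0% inhibition) and untreated cells (100% inhibition) to give % ATF4 inhibition.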

CHO cells = assay: Protein secretion in a CHO cell-based assay; conditions: 1 μM compound 10, media without FBS, 24 h, vs vehicle
Description: CHO cells were maintained at 37° C. and 5% CO2 in DMEM supplemented with 10% fetal bovine serum (FBS), 2 mM L-glutamine, 100 U/ml penicillin, and 100 μg/ml streptomycin. After reaching 80% of confluence, cells were detached and seeded on 6-well plates in complete media, allowed to recover for 48 h. Cells were then washed three times with PBS and treated with compound 10 at […] in 1 mL of media without FBS for 24 h. Treatment with 0.1% DMSO was used as control (vehicle). After 24 h treatment, supernatant (SN) which contains secreted proteins was extracted and protease and phosphatase inhibitors (Roche) were added to each sample. SN were centrifuged at 2,000 g for 10 min to discard any cellular debris and 900 μL SN were transferred to empty microtubes with 400 μL methanol by mixing well. 200 μL of chloroform was added to the mix and then samples were centrifuged at 14,000 g for 2 minutes. Top aqueous layer was discarded by pipetting off and 400 μL methanol is added to each sample by mixing well. Samples were then centrifuged at 17,000 g for 8 minutes and methanol was discarded by pipetting off without disturbing the protein pellet. […] Secreted proteins were analyzed by SDS-PAGE and Coomassie staining. […] Percentage was calculated as the percent relative to protein secretion levels from CHO cells treated with vehicle which correspond to 100%.

O=C(COc1ccc(Cl)c(F)c1)N[C@H]1CC[C@H](CNC(=O)c2ccc3cc(Cl)ccc3n2)CC1 [Compound 10, trans-6-chloro-N-((4-(2-(4-chloro-3-fluorophenoxy)acetamido)cyclohexyl)methyl)quinoline-2-carboxamide]
Secretion of Wnt-3A (L-Wnt-3A cells): increased the secretion of a particular protein (Wnt-3A)
IC50 [1]: 106 nM
Secretion of proteins in CHO cells (CHO cells): increased secretion of proteins
